Source: US8664179B2, “Identification of novel antagonist toxins of T-type calcium channel for analgesic purposes” (Centre National de la Recherche Scientifique (CNRS), priority 2009, dated 2014)
Ends that are not written are not given here.

Tests used:
human Cav3.2 = biological target: T1, human Cav3.2 (Homo sapiens, UniProt O95180); assay: Double microelectrode imposed-voltage recording of CaV3.2 current in Xenopus oocytes; assay type: cell-based; conditions: 5 mM barium, depolarization at -30 mV from -100 mV, after 30 seconds (FIG. 2)
T1 construct: expressed in transfected cells; host or cells: Xenopus laevis oocytes (cDNA injection)
T1 sequence (O95180 whole entry): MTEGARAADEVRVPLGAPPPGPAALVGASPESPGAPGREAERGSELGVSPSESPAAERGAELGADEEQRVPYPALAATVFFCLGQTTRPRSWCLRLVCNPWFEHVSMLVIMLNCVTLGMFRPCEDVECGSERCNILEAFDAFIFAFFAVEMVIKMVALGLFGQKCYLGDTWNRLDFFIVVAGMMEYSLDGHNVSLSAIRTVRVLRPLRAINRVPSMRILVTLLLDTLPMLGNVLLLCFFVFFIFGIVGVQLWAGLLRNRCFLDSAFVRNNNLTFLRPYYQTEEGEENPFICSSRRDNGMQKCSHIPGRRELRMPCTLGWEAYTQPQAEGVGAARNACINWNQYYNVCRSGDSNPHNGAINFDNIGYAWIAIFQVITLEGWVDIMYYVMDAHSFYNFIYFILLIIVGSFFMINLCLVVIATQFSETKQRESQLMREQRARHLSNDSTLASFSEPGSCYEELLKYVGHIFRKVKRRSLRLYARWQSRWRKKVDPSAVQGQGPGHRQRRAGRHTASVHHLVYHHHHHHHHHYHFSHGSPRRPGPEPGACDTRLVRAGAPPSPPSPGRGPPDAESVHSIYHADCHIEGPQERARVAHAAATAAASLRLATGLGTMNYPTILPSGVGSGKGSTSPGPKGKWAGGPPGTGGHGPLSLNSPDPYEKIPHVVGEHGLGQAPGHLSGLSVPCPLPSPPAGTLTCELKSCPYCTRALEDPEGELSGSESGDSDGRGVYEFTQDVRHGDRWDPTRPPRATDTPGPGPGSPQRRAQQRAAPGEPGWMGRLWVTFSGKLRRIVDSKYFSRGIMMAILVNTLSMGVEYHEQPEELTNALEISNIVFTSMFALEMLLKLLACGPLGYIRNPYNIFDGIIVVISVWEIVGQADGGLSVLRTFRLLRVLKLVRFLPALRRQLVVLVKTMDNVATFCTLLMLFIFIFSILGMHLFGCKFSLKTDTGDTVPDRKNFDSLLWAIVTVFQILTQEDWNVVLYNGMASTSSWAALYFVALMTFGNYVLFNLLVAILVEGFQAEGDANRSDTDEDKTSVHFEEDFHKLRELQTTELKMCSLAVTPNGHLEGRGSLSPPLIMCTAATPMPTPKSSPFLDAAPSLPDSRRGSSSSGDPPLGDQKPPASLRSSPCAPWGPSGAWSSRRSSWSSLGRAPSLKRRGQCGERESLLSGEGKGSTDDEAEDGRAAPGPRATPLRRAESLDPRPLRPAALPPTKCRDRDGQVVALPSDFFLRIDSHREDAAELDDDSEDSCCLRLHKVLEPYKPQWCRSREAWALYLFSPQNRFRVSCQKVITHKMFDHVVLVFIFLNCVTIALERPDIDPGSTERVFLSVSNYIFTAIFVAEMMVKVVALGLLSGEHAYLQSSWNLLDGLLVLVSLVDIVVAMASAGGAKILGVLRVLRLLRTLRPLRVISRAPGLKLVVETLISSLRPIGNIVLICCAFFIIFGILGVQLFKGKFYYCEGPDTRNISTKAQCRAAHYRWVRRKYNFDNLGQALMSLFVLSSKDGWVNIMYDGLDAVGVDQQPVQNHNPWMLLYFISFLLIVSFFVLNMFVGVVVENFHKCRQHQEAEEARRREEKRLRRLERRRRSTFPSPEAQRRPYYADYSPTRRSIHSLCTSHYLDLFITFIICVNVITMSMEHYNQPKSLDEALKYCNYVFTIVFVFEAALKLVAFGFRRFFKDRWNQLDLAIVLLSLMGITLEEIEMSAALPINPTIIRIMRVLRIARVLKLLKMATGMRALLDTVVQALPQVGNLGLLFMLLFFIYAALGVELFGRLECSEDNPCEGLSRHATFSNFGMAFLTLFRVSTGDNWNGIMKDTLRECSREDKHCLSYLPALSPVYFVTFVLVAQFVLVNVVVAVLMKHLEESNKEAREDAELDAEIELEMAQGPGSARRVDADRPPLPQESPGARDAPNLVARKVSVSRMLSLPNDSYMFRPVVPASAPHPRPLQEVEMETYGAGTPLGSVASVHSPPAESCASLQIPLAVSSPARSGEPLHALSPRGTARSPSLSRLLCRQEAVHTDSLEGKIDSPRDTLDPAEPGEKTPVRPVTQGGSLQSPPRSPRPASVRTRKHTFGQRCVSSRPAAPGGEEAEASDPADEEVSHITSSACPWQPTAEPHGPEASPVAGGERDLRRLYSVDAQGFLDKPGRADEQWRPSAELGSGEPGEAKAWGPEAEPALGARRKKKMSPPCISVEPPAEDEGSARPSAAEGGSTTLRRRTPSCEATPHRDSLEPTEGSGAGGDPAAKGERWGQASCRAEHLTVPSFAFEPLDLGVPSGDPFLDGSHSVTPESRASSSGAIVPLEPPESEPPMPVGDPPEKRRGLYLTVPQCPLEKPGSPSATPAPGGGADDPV
Protocol: The current is recorded in a solution containing 5 mM barium as charge carrier and it is produced by depolarization at −30 mV starting from a rest potential of −100 mV.
The cDNA coding for human Cav3.2 is injected into oocytes of Xenopus (Xenopus laevis) as described in Altier, C., Dubel, S. J., Barrére, C., Jarvis, S. E., Stotz, S. C., Spaetgens, R. L., Scott, J. D., Cornet, V., De Waard, M., Zamponi, G. W., Nargeot, J. and Bourinet, E. (2002) “Trafficking of L-type calcium channels mediated by postsynaptic scaffolding protein AKAP79.” J. Biol. Chem., 277, 33598-33603 (Ref 5) and in Dubel, S. J., Altier, C., Chaumont, S., Lory, P., Bourinet, E. and Nargeot, J. (2004) “Plasma Membrane Expression of T-type Calcium Channel {alpha}1 Subunits Is Modulated by High Voltage-activated Auxiliary Subunits.” J Biol Chem, 279, 29263-29269 (Ref 6). The currents are recorded by the technique of imposed voltage by double microelectrode using a [sequence]500 amplifier (registered trademark) (MOLECULAR DEVICES (registered trademark)) controlled by the PCLAMP9 software (registered trademark). […] The fractions (10 μl) are applied manually, directly on the oocyte recorded by means of a pipette.

[1] = biological target: T2, human Cav3.2 calcium channel (Homo sapiens, UniProt O95180); assay: Whole-cell patch clamp on HEK293 cells stably expressing the human Cav3.2 calcium channel; assay type: cell-based; conditions: CaV3.2 current, HEK293, FIG. 8
T2 construct: expressed in transfected cells
T2 sequence (O95180 whole entry): as above
Protocol: Starting from this stock concentration, the peptides were diluted in a solution corresponding to the extracellular solution used for the patch clamp analysis. This solution has the following composition (in mM): NaCl 135, TEACl 20, HEPES 10, CaCl2 2, MgCl21 (pH 7.3 with TEAOH).
HEK293 cells (ATCC) stably expressing the complementary DNA sequence of the human Cav3.2 calcium channel were used. At each passage of the cell line, cells were seeded at low density on culture dishes for “patch clamp” analysis (molecular electrophysiology).
The electrophysiological recordings were made by the “patch clamp” technique in the “whole cell” configuration using an Axopatch200B amplifier controlled by a Digidata interface and the pClamp10 software (Molecular Devices). The extracellular recording solution containing 2 mM calcium is described above.
The intrapipette solution used for the recordings has the following composition: CsCl 130 mM, HEPES 10 mM, EGTA 10 mM, CaCl2 2 mM, MgCl2 1 mM, MgATP 4 mM, TrisGTP 0.3 mM (pH 7.3 with NaOH). The results are analyzed using [sequence] (registered trademark), EXCEL (registered trademark) and [sequence] (registered trademark) software. […]
These “dose-effect” curves were analyzed with [sequence] […]

C57BL/6J mice [2] = assay: Tail immersion test in a water bath at 46° C. (thermal pain); assay type: in vivo; conditions: intrathecal injection, 10 and 100 nM, versus control group receiving physiological solution
Protocol: Mice are used for observing the analgesic effect of the peptide of the invention with respect to pain induced by thermal stimuli.
(§1) The mice are C57BL/6J wild-type mice and C57BL/6J CaV3.2−/− mice. The total number of mice is 10 wild-type and 10 CaV3.2−/−.
Two groups of mice (C57BL/6J) are used, one group injected intrathecally with a physiological solution comprising the peptide of the invention at a concentration of 10 and 100 nM and a second group (control group) receiving only intrathecal injection of physiological solution alone. The mice are then submitted to the test of immersion of the tail in a water bath at 46° C. The purpose of this experiment is to determine the time after which the mice react to the painful heat, thus showing the threshold of appearance of the painful signal connected with perception of heat. The same experiment is conducted in parallel on two other groups of C57BL/6J mice lacking the gene coding for the T-type calcium channel encoded by the CaV3.2 subunit. The purpose of this experiment is to show the selectivity of the peptide of the invention.

C57BL/6J mice [3] = assay: Mechanical stimulation test with von Frey bristles; assay type: in vivo; conditions: intrathecal injection, 10 and 100 nM, versus control group receiving physiological solution
Protocol: Mice are used for observing the analgesic effect of the peptide of the invention with respect to mechanical stimuli.
as §1
Two groups of mice (C57BL/6J) are used, one group injected intrathecally with a physiological solution comprising the peptide of the invention at a concentration of 10 and 100 nM and a second group (control group) only receiving intrathecal injection of the physiological solution alone. The mice are then submitted to the mechanical stimulation test with von Frey bristles. The purpose of this experiment is to determine the threshold of reaction to a mechanical stimulus of increasing intensity applied on the arch of the foot. The animals' reaction threshold is correlated with the appearance of the painful signal connected with the perception of mechanical pressure. The same experiment is conducted in parallel on two other groups of C57BL/6J mice lacking the gene coding for the T-type calcium channel encoded by the CaV3.2 subunit. The purpose of this experiment is to show the selectivity of the peptide of the invention.

Molecule | current of the Cav3.2 channel after application of the toxin (human Cav3.2) | Hill number (slope of dose-effect curve) [1] | time to react to heat (C57BL/6J mice [2]) | threshold of perception of mechanical pressure (C57BL/6J mice [3])
CC[C@H](C)[C@H](NC(=O)[C@H](CCCCN)NC(=O)[C@@H]1CSSC[C@@H]2NC(=O)[C@@H]3CCCN3C(=O)[C@H](CCCNC(=N)N)NC(=O)[C@H](CCC(=O)O)NC(=O)[C@H](CO)NC(=O)[C@H](CC(=O)O)NC(=O)[C@@H]3CSSC[C@H](NC(=O)[C@H](C(C)C)NC(=O)[C@H](CC(C)C)NC(=O)CNC(=O)[C@H](CCC(=O)O)NC(=O)[C@H](CSSC[C@H](NC(=O)[C@@H](N)Cc4ccc(O)cc4)C(=O)N[C@@H](CCC(N)=O)C(=O)N[C@@H](CCCCN)C(=O)N[C@@H](Cc4ccccc4)C(=O)N[C@@H](CC(C)C)C(=O)N[C@@H](Cc4c[nH]c5ccccc45)C(=O)N[C@@H]([C@@H](C)O)C(=O)N3)NC2=O)C(=O)N[C@@H](CCCNC(=N)N)C(=O)N[C@@H](CC(C)C)C(=O)N[C@@H](Cc2c[nH]c3ccccc23)C(=O)N1)C(=O)N[C@@H](CC(N)=O)C(=O)O [natural toxin] | strongly inhibited | 0.87 |  | 
CC[C@H](C)[C@H](NC(=O)[C@H](CCCCN)NC(=O)[C@@H]1CSSC[C@@H]2NC(=O)[C@@H]3CCCN3C(=O)[C@H](CCCNC(=N)N)NC(=O)[C@H](CCC(=O)O)NC(=O)[C@H](CO)NC(=O)[C@H](CC(=O)O)NC(=O)[C@@H]3CSSC[C@H](NC(=O)[C@H](C(C)C)NC(=O)[C@H](CC(C)C)NC(=O)CNC(=O)[C@H](CCC(=O)O)NC(=O)[C@H](CSSC[C@H](NC(=O)[C@@H](N)Cc4ccc(O)cc4)C(=O)N[C@@H](CCC(N)=O)C(=O)N[C@@H](CCCCN)C(=O)N[C@@H](Cc4ccccc4)C(=O)N[C@@H](CC(C)C)C(=O)N[C@@H](Cc4c[nH]c5ccccc45)C(=O)N[C@@H]([C@@H](C)O)C(=O)N3)NC2=O)C(=O)N[C@@H](CCCNC(=N)N)C(=O)N[C@@H](CC(C)C)C(=O)N[C@@H](Cc2c[nH]c3ccccc23)C(=O)N1)C(=O)N[C@@H](CC(N)=O)C(=O)O [synthetic peptide] |  | 0.89 |  | 
YCQKFLWTCDSERPCCEGLVCRLWCKIN (disulfide (positions not given here); not fully specified (bridges); also: 3 disulfide bridges between the 6 cysteines, pairing not given here) [peptide of sequence SEQ ID NO 1] |  |  | significantly longer | significantly higher
